Data from PMC6756013, “B591, a novel specific pan-PI3K inhibitor, preferentially targets cancer stem cells” (Oncogene, 2019).

Key:
PI3Kα (p110α/p85α) = target: T1, PI3Kα (p110α/p85α) (Homo sapiens, UniProt P42336); experiment: In vitro PI3K kinase assay (PI3-Kinase Activity ELISA); type: biochemical; conditions: incubated 30 min at room temperature
T1 construct: purchased Promega
Description: (§1) Purified PI3K Class I Lipid Kinase, including p110α/p85α, p110β/p85α, p110γ, and p110δ/p85α (Promega, Madison, WI, USA), was respectively incubated with B591 for 30 min at room temperature. The activity of PI3K was evaluated using a PI3-Kinase Activity ELISA kit (K-1000s, Echelon, Salt Lake City, UT, USA) according to the manufacture’s instructions. The assay is a competitive ELISA in which the signal is inversely proportional to the amount of PI(3,4,5)P3 produced. After the PI3-Kinase reactions are complete, reaction products are first mixed and incubated with a PI(3,4,5)P3 detector protein, then added to the PI(3,4,5)P3-coated microplate for competitive binding. A peroxidase-linked secondary detector and colorimetric detection is used to detect PI(3,4,5)P3 detector binding to the plate. The colorimetric signal is inversely proportional to the amount of PI(3,4,5)P3 produced by PI3-Kinase. The absorbance was measured at 450 nm with a Multilabel Reader (PerkinElmer, Waltham, MA, USA). ATP competition assays were executed with varying concentrations of ATP, and five concentrations of ATP were 5 μM, 25 μM, 50 μM, 100 μM, and 200 μM respectively. The IC50 values for inhibition of PI3Kβ by B591 were determined at indicated concentrations of ATP. In addition, B591 selectivity was tested against 39 kinases at Life Technologies.

PI3Kβ (p110β/p85α) = target: T2, PI3Kβ (p110β/p85α) (Homo sapiens, UniProt P42338); experiment: as above; type: biochemical
T2 construct: purchased Promega
T2 sequence (P42338 whole entry): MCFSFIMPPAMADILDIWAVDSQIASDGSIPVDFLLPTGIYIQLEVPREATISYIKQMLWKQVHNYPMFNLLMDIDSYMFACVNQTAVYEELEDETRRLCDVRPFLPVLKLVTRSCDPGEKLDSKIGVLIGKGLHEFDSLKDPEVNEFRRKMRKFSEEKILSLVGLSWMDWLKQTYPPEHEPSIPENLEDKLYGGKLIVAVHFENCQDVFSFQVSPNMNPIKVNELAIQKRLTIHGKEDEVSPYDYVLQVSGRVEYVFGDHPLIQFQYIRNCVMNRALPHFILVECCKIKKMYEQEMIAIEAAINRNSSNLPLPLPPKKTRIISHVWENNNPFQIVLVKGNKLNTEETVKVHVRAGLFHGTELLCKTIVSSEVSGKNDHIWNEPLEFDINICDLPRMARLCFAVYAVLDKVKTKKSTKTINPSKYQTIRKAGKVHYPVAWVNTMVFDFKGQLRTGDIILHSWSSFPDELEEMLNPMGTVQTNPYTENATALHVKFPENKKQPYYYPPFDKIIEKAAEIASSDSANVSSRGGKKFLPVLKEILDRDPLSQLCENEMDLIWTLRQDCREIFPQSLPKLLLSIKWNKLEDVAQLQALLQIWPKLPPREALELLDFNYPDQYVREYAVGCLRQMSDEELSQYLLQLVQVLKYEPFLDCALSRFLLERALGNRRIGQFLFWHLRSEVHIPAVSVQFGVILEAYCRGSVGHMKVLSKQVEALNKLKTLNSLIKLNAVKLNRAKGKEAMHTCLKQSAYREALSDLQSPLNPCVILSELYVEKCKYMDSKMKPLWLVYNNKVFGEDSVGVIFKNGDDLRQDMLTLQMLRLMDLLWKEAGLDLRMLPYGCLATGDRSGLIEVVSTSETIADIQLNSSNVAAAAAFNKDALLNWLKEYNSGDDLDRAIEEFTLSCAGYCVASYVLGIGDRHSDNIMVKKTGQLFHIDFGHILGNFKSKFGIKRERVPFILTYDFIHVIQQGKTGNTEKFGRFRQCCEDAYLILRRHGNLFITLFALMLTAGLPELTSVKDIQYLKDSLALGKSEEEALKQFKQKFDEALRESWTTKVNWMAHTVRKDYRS
T2 sequence (P27986 whole entry partner): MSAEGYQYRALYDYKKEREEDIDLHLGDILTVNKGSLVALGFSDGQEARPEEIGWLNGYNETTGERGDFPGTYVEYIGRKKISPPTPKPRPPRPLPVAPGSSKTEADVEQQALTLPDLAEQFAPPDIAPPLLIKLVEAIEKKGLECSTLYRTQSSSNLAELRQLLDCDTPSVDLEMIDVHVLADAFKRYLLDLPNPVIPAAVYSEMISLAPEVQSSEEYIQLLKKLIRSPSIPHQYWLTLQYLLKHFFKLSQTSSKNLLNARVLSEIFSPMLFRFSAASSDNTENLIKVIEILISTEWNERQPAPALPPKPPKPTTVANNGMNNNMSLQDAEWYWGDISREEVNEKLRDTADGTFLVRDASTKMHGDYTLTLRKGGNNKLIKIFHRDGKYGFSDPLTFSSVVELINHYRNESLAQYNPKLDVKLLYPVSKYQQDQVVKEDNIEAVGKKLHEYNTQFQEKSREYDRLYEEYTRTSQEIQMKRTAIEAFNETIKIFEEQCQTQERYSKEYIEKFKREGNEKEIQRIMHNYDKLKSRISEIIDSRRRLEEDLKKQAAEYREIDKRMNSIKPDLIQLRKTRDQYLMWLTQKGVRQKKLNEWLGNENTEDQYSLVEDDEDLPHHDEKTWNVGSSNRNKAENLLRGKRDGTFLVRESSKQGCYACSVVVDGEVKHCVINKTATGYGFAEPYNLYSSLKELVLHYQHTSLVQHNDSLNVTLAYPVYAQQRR
Description: as §1

PI3Kγ (p110γ) = target: T3, PI3Kγ (p110γ) (Homo sapiens, UniProt P48736); experiment: as above; type: biochemical; conditions: incubated 30 min at room temperature
T3 construct: purchased Promega
T3 sequence (P48736 whole entry): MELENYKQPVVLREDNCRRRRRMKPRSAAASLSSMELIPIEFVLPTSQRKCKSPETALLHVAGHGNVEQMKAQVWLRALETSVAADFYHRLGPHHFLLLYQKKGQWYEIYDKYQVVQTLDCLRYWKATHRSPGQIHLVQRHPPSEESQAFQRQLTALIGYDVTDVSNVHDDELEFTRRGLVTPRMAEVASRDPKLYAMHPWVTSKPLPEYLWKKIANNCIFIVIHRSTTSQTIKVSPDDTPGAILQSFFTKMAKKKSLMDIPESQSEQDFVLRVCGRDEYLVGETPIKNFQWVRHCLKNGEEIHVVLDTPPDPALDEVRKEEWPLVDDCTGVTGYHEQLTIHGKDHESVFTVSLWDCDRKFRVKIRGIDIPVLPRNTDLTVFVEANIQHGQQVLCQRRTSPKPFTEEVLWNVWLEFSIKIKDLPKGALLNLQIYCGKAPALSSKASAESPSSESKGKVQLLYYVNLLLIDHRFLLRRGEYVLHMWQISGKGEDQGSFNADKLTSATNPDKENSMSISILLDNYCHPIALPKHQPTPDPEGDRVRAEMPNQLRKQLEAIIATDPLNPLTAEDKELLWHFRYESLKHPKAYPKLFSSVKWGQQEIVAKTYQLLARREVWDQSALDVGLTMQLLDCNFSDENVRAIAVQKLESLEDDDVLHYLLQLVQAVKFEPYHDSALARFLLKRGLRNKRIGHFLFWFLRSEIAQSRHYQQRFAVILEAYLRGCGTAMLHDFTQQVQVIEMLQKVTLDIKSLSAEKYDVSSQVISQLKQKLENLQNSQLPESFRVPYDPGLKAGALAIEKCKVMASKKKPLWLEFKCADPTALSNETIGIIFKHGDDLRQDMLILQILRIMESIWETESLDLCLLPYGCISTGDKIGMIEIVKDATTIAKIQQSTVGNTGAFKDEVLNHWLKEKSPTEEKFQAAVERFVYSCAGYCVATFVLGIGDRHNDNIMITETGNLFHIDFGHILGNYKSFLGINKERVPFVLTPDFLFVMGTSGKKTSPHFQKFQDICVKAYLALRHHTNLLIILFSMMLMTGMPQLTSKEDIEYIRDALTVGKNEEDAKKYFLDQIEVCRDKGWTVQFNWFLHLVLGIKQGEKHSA
Description: as §1

PI3Kδ (p110δ/p85α) = target: T4, PI3Kδ (p110δ/p85α) (Homo sapiens, UniProt O00329); experiment: as above; type: biochemical; conditions: incubated 30 min at room temperature
T4 construct: purchased Promega
T4 sequence (O00329 whole entry): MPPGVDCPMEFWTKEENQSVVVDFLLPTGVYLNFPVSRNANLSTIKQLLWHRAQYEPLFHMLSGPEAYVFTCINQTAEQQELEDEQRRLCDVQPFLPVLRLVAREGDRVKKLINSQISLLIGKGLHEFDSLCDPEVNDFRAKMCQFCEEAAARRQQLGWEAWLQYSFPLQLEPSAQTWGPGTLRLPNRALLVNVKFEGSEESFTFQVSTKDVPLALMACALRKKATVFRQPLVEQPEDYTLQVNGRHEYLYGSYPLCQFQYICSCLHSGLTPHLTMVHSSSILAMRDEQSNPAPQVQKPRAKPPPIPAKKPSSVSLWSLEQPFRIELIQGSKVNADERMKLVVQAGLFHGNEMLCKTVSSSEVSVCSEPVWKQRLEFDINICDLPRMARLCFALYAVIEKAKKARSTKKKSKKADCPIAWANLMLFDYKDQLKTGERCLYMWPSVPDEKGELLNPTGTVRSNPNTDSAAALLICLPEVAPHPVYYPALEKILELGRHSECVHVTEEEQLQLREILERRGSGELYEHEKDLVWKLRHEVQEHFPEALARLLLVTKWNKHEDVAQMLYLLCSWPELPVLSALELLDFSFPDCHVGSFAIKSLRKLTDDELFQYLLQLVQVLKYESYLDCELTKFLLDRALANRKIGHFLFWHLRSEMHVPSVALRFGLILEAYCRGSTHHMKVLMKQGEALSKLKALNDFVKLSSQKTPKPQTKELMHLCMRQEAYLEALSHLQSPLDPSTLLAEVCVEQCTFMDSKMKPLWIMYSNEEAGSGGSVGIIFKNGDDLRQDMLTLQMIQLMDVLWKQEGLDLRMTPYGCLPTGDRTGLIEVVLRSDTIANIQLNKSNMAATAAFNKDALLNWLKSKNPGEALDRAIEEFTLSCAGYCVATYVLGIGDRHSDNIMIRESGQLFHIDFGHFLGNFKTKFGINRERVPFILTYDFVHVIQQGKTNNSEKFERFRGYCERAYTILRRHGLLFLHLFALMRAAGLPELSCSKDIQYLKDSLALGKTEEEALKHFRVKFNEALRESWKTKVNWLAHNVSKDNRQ
T4 sequence (P27986 whole entry partner): as the sequence (P27986 whole entry partner) above
Description: as §1

[1] = tested on: PIP3/PI(4,5)P2 ratio in HCT116 cells; experiment: Cellular PI3K kinase assay (PIP3 and PI(4,5)P2 ELISA); type: cell-based; conditions: 10 h treatment
Description: Cells were seeded at density of 3 × 10^7 cells/150 mm dish. After treatment with different concentrations of B591 for 10 h, the media was removed and 10 ml of ice-cold 0.5 M TCA was immediately added. Incubate cells on ice for 5 min. Cells were scraped and centrifuged at 3000 rpm for 7 min at 4 ℃. The pellet was resuspended in 3 ml of 5% […] acid/1 mM EDTA, vortexed for 30 s, and centrifuged at 3000 rpm for 5 min. The supernatant was discarded and the cells was washed one more time. Afterward, neutral lipids were extracted adding 3 ml of MeOH:CHCl3 (2:1) and continuously vortexing for 10 min at room temperature. Extracts were centrifuged at 3000 rpm for 5 min, the supernatant was discarded, and this extraction step was repeated one more time. The acidic lipids were extracted adding 2.25 ml MeOH:CHCl3:12 M HCl (80:40:1) with continuous vortexing over 25 min at room temperature. Extracts were centrifuged at 3000 rpm for 5 min and the supernatant was transferred to a new 15 ml tube; 0.75 ml of CHCl3 and 1.35 ml of 0.1 M HCl were added to the supernatant, vortexed, and centrifuged at 3000 rpm for 5 min to separate organic and aqueous phases. […] Once phospholipids were isolated from cells, PIP3 and PI(4,5)P2 levels were measured using ELISA kits (Echelon, K-2500s and K4500) according to the manufacturer’s instructions.

[2] = tested on: CD44high/CD24low population in mammospheres from SUM-159PT cells; experiment: CSCs phenotype assay (CD44/CD24 flow cytometry); type: cell-based; conditions: 4 µM
Description: Cells were treated with B591 for 24 h, then the cell suspension was incubated with 20 μl of CD44-APC (#559942, BD Pharmingen, Franklin Lakes, NJ, USA) and 20 μl of CD24-PE (#555428, BD Pharmingen) antibodies for 30 min in dark at 4 ℃. Phenotype was detected by BD FACSCalibur, and data was analyzed with Flowjo. ALDH activity was analyzed with ALDEFLUOR Kit (STEMCELL Technologies, Vancouver, BC, Canada) according to the manufacture’s protocol.

[3] = tested on: primary tumor cells dissociated from MDA-MB-231 xenografts replanted into NOD/SCID mice; experiment: Limiting dilution assay of cells from treated MDA-MB-231 xenografts; type: in vivo; conditions: for number of tumor-bearing mice (number of recipient mice): cells from 16 mg/kg group, 3 months later
Description: Fig. 5 B591 abolishes tumor growth in vivo by eliminating CSCs. a MDA-MB-231 xenografts were treated with vehicle or B591 for 2 weeks, then the residual tumor tissue was harvested and dissociated into single cells for subsequent CSCs assays according with the flow chart. b–d Tumor weight and mice body weight were measured every 2 days during treatment. In the end of treatment, tumor tissues were collected and weighted (n = 8). e The CSCs markers of tumor cells were analyzed by flow cytometry. Only the live and non-mouse cell population was gated and analyzed. Data from three mice were plotted. f Mammosphere formation assay was carried out with the single cells. The relative mammosphere-formation ability is shown as percentage, and data represent mean ± SD. g The single cells from vehicle and 16 mg/kg of B591 group were replanted into NOD/SCID mice according to the indicating number, and 3 months later, tumors were counted for calculating the tumor-initiating frequency. h The CSCs markers and the downstream substrates of PI3K pathway were analyzed using the lysates from the primary xenografts by western blot analysis. ^**p < 0.01, difference versus vehicle-treated control group TEXT PRINTED IN THE PICTURE: (G) B591: 3(5) (Cell number: 200 000); 2(5) (Cell number: 20 000); 0(5) (Cell number: 2 000); 0(5) (Cell number: 200); TIF: 1/145 000
The primary tumor cells dissociated from xenografts were injected into the mammary fat pad of NOD/SCID mice in limiting dilutions.
In MDA-MB-231 xenografts experiment, 1 × 10^6 cells were incubated into the mammary fat pad of mice orthotopically. When the volume of tumor reached above 50 mm^3, the mice were randomly divided into three groups for introperitoneal (i.p.) injection with vehicle, 4 mg/kg and 16 mg/kg B591. The tumor volume and the body weight of mice were measured during the 2-weeks treatment. In the end of treatment, the mice were killed, and the tumor tissues were dissected and dissociated into single cell suspension with Dispase II (Roche, Basel, Switzerland) according with the manufacture’s protocol. Then these single cells were used for CSCs phenotype assay, ALDH activity assay, mammosphere formation assay and limiting dilution assay in vivo as described above.

T1 sequence (P42336 whole entry): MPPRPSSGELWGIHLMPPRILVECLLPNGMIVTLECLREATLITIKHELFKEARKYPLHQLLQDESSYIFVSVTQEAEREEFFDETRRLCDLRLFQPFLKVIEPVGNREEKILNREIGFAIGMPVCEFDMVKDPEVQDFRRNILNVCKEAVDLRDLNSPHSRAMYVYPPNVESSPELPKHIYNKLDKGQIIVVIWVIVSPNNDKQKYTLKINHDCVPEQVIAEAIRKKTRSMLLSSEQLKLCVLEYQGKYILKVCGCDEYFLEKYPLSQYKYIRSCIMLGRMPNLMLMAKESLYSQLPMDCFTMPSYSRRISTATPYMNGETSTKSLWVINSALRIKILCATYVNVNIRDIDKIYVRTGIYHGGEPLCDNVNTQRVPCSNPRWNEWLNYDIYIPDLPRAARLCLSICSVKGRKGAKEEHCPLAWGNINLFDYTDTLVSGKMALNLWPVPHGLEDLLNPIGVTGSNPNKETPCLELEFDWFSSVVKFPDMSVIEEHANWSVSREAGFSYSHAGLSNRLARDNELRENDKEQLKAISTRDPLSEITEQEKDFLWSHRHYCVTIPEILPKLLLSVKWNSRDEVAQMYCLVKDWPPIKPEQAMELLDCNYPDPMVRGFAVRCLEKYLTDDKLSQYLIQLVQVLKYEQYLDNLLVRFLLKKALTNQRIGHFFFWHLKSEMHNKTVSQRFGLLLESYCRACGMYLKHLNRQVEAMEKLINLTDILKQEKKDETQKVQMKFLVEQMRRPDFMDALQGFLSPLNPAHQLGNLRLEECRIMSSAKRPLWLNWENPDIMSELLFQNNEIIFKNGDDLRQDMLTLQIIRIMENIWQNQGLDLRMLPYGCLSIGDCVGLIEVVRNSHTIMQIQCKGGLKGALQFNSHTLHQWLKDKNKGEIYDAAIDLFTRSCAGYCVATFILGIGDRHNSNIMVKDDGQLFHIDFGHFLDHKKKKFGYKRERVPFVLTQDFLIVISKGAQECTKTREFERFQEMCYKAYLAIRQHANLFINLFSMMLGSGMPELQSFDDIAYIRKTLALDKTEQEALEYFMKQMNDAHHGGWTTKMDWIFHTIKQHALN
T1 sequence (P27986 whole entry partner): as the sequence (P27986 whole entry partner) above

Structure (SMILES): Cc1cc2c(cc1C)[n+](Cc1ccccc1Br)cn2Cc1ccc2c(c1)CCO2.[Br-] [B591, 3-(2-bromobenzyl)-1-((2,3-dihydrobenzofuran-5-yl)methyl) -5,6-dimethyl-1H-benzo[d]imidazol-3-ium bromide]
- IC50 (PI3Kα (p110α/p85α)): 1300 ± 270 nM
- Mode of inhibition (IC50 for PI3Kβ at various concentrations of ATP) (PI3Kβ (p110β/p85α); ATP 5, 25, 50, 100 and 200 μM): ATP-competitive inhibitor
- IC50 (PI3Kβ (p110β/p85α); PI3-Kinase Activity ELISA, incubated 30 min at room temperature): 364 ± 130 nM
- IC50 (PI3Kγ (p110γ)): 107 ± 70 nM
- IC50 (PI3Kδ (p110δ/p85α)): 1580 ± 160 nM
- IC50 for decrease of PIP3/PI(4,5)P2 ratio [1]: 1910 nM
- Decrease of CD44high/CD24low population [2]: 82%
- number of tumor-bearing mice (number of recipient mice) ([3]; cell number 2 000): 0(5)
- number of tumor-bearing mice (number of recipient mice) ([3]; cell number 20 000): 2(5)
- number of tumor-bearing mice (number of recipient mice) ([3]; cell number 200 000): 3(5)
- number of tumor-bearing mice (number of recipient mice) ([3]; cell number 200): 0(5)
- Reduction of tumor-initiating frequency versus vehicle ([3]; cells from B591-treated tumors): sevenfold reduction
